# Test results: paper PMC12040169 (PLOS Biology, 2025)
# Assay: in vitro
# Conditions: human, hela cells, % viability
row,Structure (SMILES),"viability at 28.5 h, 10 µM [%]"
1,CC1=C(C)CC(C(=O)NC(C)CCc2ccccc2)C(C(=O)O)C1 (centres unmarked) [CBK265452],99.9
2,Cc1ccc2c(Cl)c(-c3nnc(-c4ccc(Cl)cc4)o3)sc2c1 [CBK263682],106
3,CC1CCCC(C)N1CC(O)COCc1ccc2c(c1)OCO2 (centres unmarked) [CBK263134C],86.3
4,O=[N+]([O-])c1cc(CN2CCN(c3ccccc3)CC2)c(O)c2ncccc12 [CBK218696],99.6
5,CC(NC(=O)CSCc1ccco1)c1ccccc1 (centres unmarked) [CBK283237],100
6,COc1ccc2c(c1)N1CCCN=C1N2C [CBK011358C],90.8
7,COc1ccc(-c2nccnc2OC)c(OC)c1 [CBK107039],114
8,CC(C(=O)NC(c1ccncc1)c1cccs1)n1ccnc1 (centres unmarked) [CBK281438],90.9
9,O=C(c1ccco1)N1CCC(c2onc3c2CCCCC3)CC1 [CBK284486],91
10,CN1CCN(C(=O)c2ccccc2NC(=O)c2ccc(C(C)(C)C)cc2)CC1 [CBK270054],93.4
11,O=C(O)c1ccccc1C(=O)Nc1c(-c2ccccc2)nc2ccccn12 [CBK287041],96.2
12,CCCn1c(O)cc(=O)nc1SCC(=O)N1CCCc2ccccc21 [CBK304977],79.1
13,Oc1cccc2c1CC(NCC(F)(F)C(F)(F)F)CC2 (centres unmarked) [CBK007596],96.5
14,COc1ccc(CC(=O)O)cc1S(=O)(=O)Nc1ccc(SC)cc1 [CBK298315],81
15,COc1ccccc1N1CCN(CC(CC(=O)Nc2ccc3c(c2)OCO3)C(=O)O)CC1 (centres unmarked) [CBK286822],95
16,N#Cc1c2c(c(NCCN3CCCCC3)n3c1nc1ccccc13)CCC2 [CBK263140],114
17,O=C(NCc1ccccc1)[C@@H]1Cc2[nH]cnc2CN1C(=O)C1CCCCC1 [CBK288972],113
18,Cc1ccc(NC(=O)CN2CCN(Cc3ccc4c(c3)OCO4)CC2)cc1 [CBK074403],102
19,O=C(O)CCC(=O)Nc1ccccc1C(=O)NC1CCCCC1 [CBK267674],105
20,O=C(O)c1cccc2c1C(=O)N(Cc1c(F)cccc1Cl)C2 [CBK291201],111
21,CN(C)CC1CN(C(=O)c2ccccc2F)Cc2ccccc2O1 (centres unmarked) [CBK285188],86.9
22,CC(=O)NC1(c2ccccc2F)CCN(c2ncc(-c3ccco3)c(-c3ccco3)n2)CC1 [CBK286428],95.3
23,CCC(NC(=O)Nc1ccccc1C(=O)O)(C(F)(F)F)C(F)(F)F [CBK268000],93.2

row,Structure (SMILES),"viability at 28.5 h, 10 µM [%]"
1,Cn1cc([C@@H]2CN(Cc3ccc(F)c(F)c3)C[C@H]2N)c2ccncc21 [CBK285179],88.3
2,Cc1cc(NS(=O)(=O)c2ccc(NC(=O)c3ccc(C(C)(C)C)c(Br)c3)cc2)no1 [CBK265629],119
3,Cc1ccc(C(C)C)c(OCC(=O)Nc2ccc(F)c([N+](=O)[O-])c2)c1 [CBK263771],91.7
4,CCC1(CCc2ccccc2)CC(O)=CC(=O)O1 (centres unmarked) [CBK012790],98.5
5,S=c1[nH]nc(CN2CCSCC2)n1-c1ccc(Cl)cc1 [CBK013868],105
6,CCOC(=O)N(C)c1c(CC)nc2ccc(C(=O)N(C)CCCN(C)C)cn12 [CBK146478],107
7,COc1cc(-c2nnc(CSCc3n[nH]c(=O)[nH]3)o2)cc(OC)c1OC [CBK299814],99.5
8,O=S(=O)(c1ccc(C2=CSC3=NCCN23)cc1)N1CCOCC1 [CBK019381],101
9,Cc1cc(S(=O)(=O)Nc2ccc(C(C)(C)C)cc2)sc1C(=O)O [CBK297946],88.1
10,COc1ccnc(N2CCN(Cc3cncn3C3CCCCC3)CC2)n1 [CBK306925],98.1
11,CNc1ncnc2c1ncn2[C@@H]1O[C@H](CO)[C@@H](O)[C@H]1O [CBK200610],101
12,COc1ccc(Br)c(C(CO)N(C)C(=O)CC#N)c1 (centres unmarked) [CBK304240],88
13,CCC(NS(=O)(=O)c1cnc2c(c1)c(C)nn2C)C(O)C(F)(F)F (centres unmarked) [CBK306264],86.5
14,O=C(Nc1ccc([C@@H](O)[C@H]2COCC(=O)N2Cc2ccccc2F)cc1)c1cnccn1 [CBK289060],83.2
15,CCCCCCN1CCN(c2nccn(CCOc3cc(F)c(F)cc3F)c2=O)CC1 [CBK045889C],113
16,C(=N\Nc1nnc(-c2ccccc2)c(-c2ccccc2)n1)/c1cccnc1 [CBK262025],91.8
17,COc1c(O)ccc(/C=N/NC(=O)COc2c(Br)cc(Br)cc2Br)c1[N+](=O)[O-] [CBK261957],95.9
18,CN(C)C(=O)COc1cccc(Nc2nc(Br)cn3ccnc23)c1 [CBK037989],92.8
19,CCc1cc(CNC(=O)C(c2ccc(Cl)cc2)N(C)C)on1 (centres unmarked) [CBK281670],96.6
20,NC(=O)c1c(NC(=O)CCN2C(=O)c3cccc([N+](=O)[O-])c3C2=O)sc2c1CCCC2 [CBK263132],105
21,CN1CCc2nc(SCc3cccnc3)c(C#N)cc2C1 [CBK267463],87.4
22,CCn1cc(-c2cncn2CCCOc2cccc(C)c2)cn1 [CBK281760],90.5
23,CCCc1[nH]nc(O)c1CCc1c(Cl)cccc1Cl [CBK081403],112

row,Structure (SMILES),"viability at 28.5 h, 10 µM [%]"
1,CC(=O)N1CCN(Cc2oc(C)cc(=O)c2O)CC1 [CBK288383],91.6
2,Cc1nc(C(Cc2ccsc2)NC(=O)c2cc[nH]n2)sc1C (centres unmarked) [CBK284776],85.9
3,CCc1ccc(C(O)CNC2CCN(C3CCCCC3)CC2)cc1 (centres unmarked) [CBK304604],88.2
4,COC(=O)c1ccc2c(=O)n(CCN3CCOCC3)c(=S)[nH]c2c1 [CBK268553],69
5,COc1ccc([C@@]23CC[C@@H](NC(=O)c4ccc(C(F)(F)F)cc4F)C[C@@H]2N(C)CC3)cc1OC [CBK073976T],108
6,CCCC/C=C/c1cncc(N[C@@H](C)c2ccccc2)n1 [CBK065472],109
7,CS(=O)(=O)N(CC(=O)NCc1ccccn1)c1cc(Cl)cc(Cl)c1 [CBK266459],106
8,COc1ccc(Cn2c(=O)n(S(=O)(=O)c3cccc(-c4nnc(C)o4)c3)c3ccccc32)cc1 [CBK106558],89.8
9,O=C(CSc1nnc(Cc2ccccc2)n1-c1ccc(Cl)cc1)Nc1cc(Cl)ccc1O [CBK269061],99.9
10,CN1CCN(Cc2c(C3CCCC3)[nH]c3ncccc23)CC1 [CBK285336],88.6
11,CCOC(=O)NC(=O)c1cn(N2CCOCC2)c(=O)[nH]c1=O [CBK004845],104
12,Cc1ccccc1OCc1nnc(SCc2nnc(-c3ccccc3)o2)n1C [CBK267406],90.1
13,O=c1[nH]ccn1CCNc1ccc(-c2cccc3cccnc23)cn1 [CBK037658],79.2
14,O=C(NCc1ccccc1OC1CCNC1)c1ccccc1 (centres unmarked) [CBK028301T],114
15,COc1cc(CNn2cnnc2S)ccc1OCC(=O)NC(C)(C)C [CBK266429],92.5
16,COCCNC(=O)C(C)SCc1ccccc1 (centres unmarked) [CBK028889],86.1
17,COc1ccc(S(=O)(=O)N2CCC(C(=O)NC3(C(=O)O)CCCCC3)CC2)cc1OC [CBK295646],95.5
18,COc1ncc(-c2cc(N3CCN(c4ccccn4)CC3)ncn2)c(OC)n1 [CBK037707],102
19,CC(=O)c1cccc(NC(=O)C2CCCN(S(=O)(=O)c3ccc(Cl)cc3)C2)c1 (centres unmarked) [CBK266847],102
20,Cc1ccc(N2C(=O)c3ccccc3C2=O)cc1 [CBK113243],95.7
21,CCOC(=O)Cc1nc2ccccc2[nH]1 [CBK261674],102
22,O=C(O)CCC(=O)N1C[C@@H]2C[C@H](C1)c1ccc(-c3ccc4ccccc4c3)c(=O)n1C2 [CBK289179],107
23,COCCN(Cc1nccs1)C(=O)C1CCc2nn(C)c(=O)n2C1 (centres unmarked) [CBK306506],103

row,Structure (SMILES),"viability at 28.5 h, 10 µM [%]"
1,O=C(NCCCc1ccccn1)c1cc(C2CCCCC2)no1 [CBK283296],89.4
2,CCOC(=O)C1CCCN(Cc2ccc3c(c2)OCO3)C1 (centres unmarked) [CBK074569],97.7
3,COc1ccc([C@H]2CN(Cc3ccccc3)C[C@@H]2NC(=O)c2ccco2)cc1OC [CBK286478],88.4
4,Cc1cc(C(=O)N2CCC(n3c(=O)[nH]c4ccccc43)CC2)no1 [CBK149714],103
5,Cc1cc(NC(=O)C2CCN(C(=O)c3c(F)cccc3F)CC2)no1 [CBK304359],95.9
6,COC(=O)c1ccc(Cl)cc1N(Cc1c(F)cccc1Cl)S(C)(=O)=O [CBK021351],85.3
7,COc1ccc(Cl)cc1-n1c(-c2ccc3ccccc3n2)n[nH]c1=S [CBK288382],95.4
8,O=S(=O)(Nc1nnc(C(F)(F)F)s1)c1ccc(Br)cc1C(F)(F)F [CBK062013],96.7
9,NC1CCN(c2nccnc2OCCOc2cccnc2)CC1 [CBK003889F],82.3
10,CC(C)CC(=O)Nc1nc(OCC(F)(F)F)cnc1-c1ccc(Cl)cc1Cl [CBK145356],94.2
11,Cc1nnc(SCC(=O)Nc2nnc(C(C)C)s2)[nH]c1=O [CBK022107],87
12,CCN(C)CC(=O)N1CCC(Oc2cc(C)ccc2F)(C(=O)O)CC1 [CBK307020],105
13,COCCc1noc(CC2CCN(c3nc(C#N)c(Cl)s3)CC2)n1 [CBK304205],102
14,CC(=O)Nc1cccc(-c2nccnc2C2CCCN(CCc3ccccc3)C2)c1 (centres unmarked) [CBK286128],110
15,O=C(Nc1ccccc1)OC1CCCCC1 [CBK015569],116
16,Cc1noc(C)c1S(=O)(=O)Nc1cccc(C(=O)N2CCN(C)CC2)c1 [CBK038972],101
17,CN1CC[C@]2(c3ccc4c(c3)nnn4C)CC[C@@H](NC(=O)Nc3cccc(C(F)(F)F)c3F)C[C@H]12 [CBK067410],99.9
18,CC(NC(=O)C1(Cn2ccnc2)CC1)c1nncn1C(C)C (centres unmarked) [CBK306682],99.5
19,O=C(N/N=C/c1ccc(OC(=O)c2cccs2)cc1)c1ccccn1 [CBK262178],107
20,C=C(C)CN1CCN(C(C(=O)O)c2c[nH]c3cc(F)ccc23)CC1 (centres unmarked) [CBK286835],106
